# What was measured:
# [1] = Dissociation constant of the Compound; type: physicochemical
# [2] = biological target: Protein farnesyltransferase (Homo sapiens, UniProt P49354+P49356); assay: Inhibition of Farnesyl protein transferase; type: protein-complex assay
Structure (SMILES),Kd [1],IC50 [2]
O=C(Cc1cc[n+]([O-])cc1)N1CCN([C@H]2c3ccc(Cl)cc3CCc3cc(Br)cnc32)CC1,21 nM,–
O=C(Cc1cc[n+]([O-])cc1)N1CCC(=C2c3ccc(Cl)cc3CCc3cc(Br)cnc32)CC1,17.5 nM,52 nM
O=C(Cc1cc[n+]([O-])cc1)N1CCN([C@@H]2c3ccc(Cl)cc3CCc3cc(Br)cnc32)CC1,32 nM,–
O=C(Cc1cc[n+]([O-])cc1)N1CCC(=C2c3ccc(Cl)cc3CCc3cccnc32)CC1,240 nM,–
O=C(Cc1cc[n+]([O-])cc1)N1CCC(=C2c3ncc(Br)cc3CCc3cc(Cl)cc(Br)c32)CC1,5.1 nM,3.9 nM

# Reference: ChEMBL document CHEMBL1132239, “Tricyclic farnesyl protein transferase inhibitors: crystallographic and calorimetric studies of structure-activity relationships” (J Med Chem, 1999)
